Measured values from patent US20230339939A1 (Bayer Aktiengesellschaft, priority 2020, published 2023).

Assays:
CSNK1A1 = CSNK1A1 (Homo sapiens (Human), UniProt P48729); test: CSNK1A1 Assay 2 (ADP-Glo, 1 μM ATP, substrate biotin-Ahx-KRRRAL-pS-VASLPGL); type: biochemical; settings: median, read-out: CSNK1A1 Assay 2 IC50 [mol/l] (median)
In short: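 GST-tagged full-length human CSNK1A1 from baculovirus-infected insect cells (about 0.0375 ng/μL), preincubated 15 min at 22 °C with compound in HEPES pH 7.5 buffer, with 1 μM ATP and biotin-Ahx-KRRRAL-pS-VASLPGL substrate. ADP formed read by ADP-Glo luminescence.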

CSNK1D = CSNK1D (Homo sapiens (Human), UniProt P48730); test: CSNK1D Assay (ADP-Glo, 1 μM ATP); type: biochemical; settings: median, read-out: CSNK1D IC50 [mol/l] (median)
Chain of CSNK1D (P48730 whole entry): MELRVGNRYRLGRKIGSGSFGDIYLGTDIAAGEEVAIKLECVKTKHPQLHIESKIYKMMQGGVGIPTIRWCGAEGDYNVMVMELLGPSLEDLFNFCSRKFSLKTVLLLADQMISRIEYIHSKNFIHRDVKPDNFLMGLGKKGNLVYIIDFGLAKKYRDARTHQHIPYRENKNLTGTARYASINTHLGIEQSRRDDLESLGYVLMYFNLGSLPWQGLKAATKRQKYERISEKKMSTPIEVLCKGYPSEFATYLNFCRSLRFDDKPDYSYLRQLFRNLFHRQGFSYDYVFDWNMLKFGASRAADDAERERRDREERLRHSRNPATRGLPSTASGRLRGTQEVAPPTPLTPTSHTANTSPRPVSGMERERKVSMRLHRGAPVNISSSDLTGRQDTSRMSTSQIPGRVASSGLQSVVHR
In short: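 Enzyme is N-terminal GST-tagged full-length human CSNK1D from baculovirus-infected insect cells (typically about 0.5 ng/μL), with a biotinylated peptide substrate and 1 μM ATP. Compound pre-incubated 15 min at 22° C in HEPES pH 7.5 buffer; ADP formed is read by ADP-Glo luminescence.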

Chain of CSNK1A1 (P48729 whole entry): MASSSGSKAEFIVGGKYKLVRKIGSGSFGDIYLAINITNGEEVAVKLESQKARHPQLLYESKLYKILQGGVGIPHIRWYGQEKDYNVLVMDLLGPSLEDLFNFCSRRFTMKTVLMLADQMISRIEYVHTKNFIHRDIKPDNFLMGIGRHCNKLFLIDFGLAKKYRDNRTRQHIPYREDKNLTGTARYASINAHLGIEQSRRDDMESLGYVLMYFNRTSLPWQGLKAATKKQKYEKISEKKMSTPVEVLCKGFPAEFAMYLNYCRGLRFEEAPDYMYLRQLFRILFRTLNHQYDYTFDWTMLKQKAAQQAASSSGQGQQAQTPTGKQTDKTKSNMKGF

Row | Structure (SMILES) | IC50 (CSNK1A1) | IC50 (CSNK1D)
1 | O=C(Cc1ccc(F)cc1)Nc1cc(-c2[nH]c3ccc(Cl)nc3c2-c2ccccn2)ccn1 [Example 23, N-{4-[5-chloro-3-(pyridin-2-yl)-1H-pyrrolo[3,2-b]pyridin-2-yl]pyridin-2-yl}-2-(4-fluorophenyl)acetamide] | 0.941 nM | 3.18 nM
2 | O=C(Cc1ccc(Cl)cc1)Nc1cc(-c2[nH]c3cccnc3c2-c2ccccn2)ccn1 [Example 42, 2-(4-chlorophenyl)-N-{4-[3-(pyridin-2-yl)-1H-pyrrolo[3,2-b]pyridin-2-yl]pyridin-2-yl}acetamide] | 1.23 nM | 3.33 nM
3 | COCCC(C(=O)Nc1cc(-c2[nH]c3cccnc3c2-c2ccccn2)ccn1)c1ccc(F)cc1 (racemic) [Example 44] | 4.97 nM | 9.84 nM
